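How tested: cells in 96-well plates exposed to compound for 48 hours at five concentrations. Definition used: TGI = concentration required for complete inhibition of growth.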 Where a SMILES comes first, the peptide text is derived from it. [ ]: non-standard residue; d: D form. The star is where a group is joined. Chg = N[CH](C(=O)O)C1CCCCC1; Cbz = O=C(OCc1ccccc1)*; OBn = c1ccc(CO*)cc1
Assays:
Assay in all cases: DTP human tumour cell line panel, 48 h
786-0 renal = system: 786-0 renal
A549 NSCLC = system: A549 NSCLC
ACHN renal = system: ACHN renal
CAKI-1 renal = system: CAKI-1 renal
CCRF-CEM leukemia = system: CCRF-CEM leukemia
COLO 205 colon = system: COLO 205 colon
DU-145 prostate = system: DU-145 prostate
EKVX NSCLC = system: EKVX NSCLC
HCC-2998 colon = system: HCC-2998 colon
HCT-116 colon = system: HCT-116 colon
HCT-15 colon = system: HCT-15 colon
HL-60(TB) leukemia = system: HL-60(TB) leukemia
HOP-62 NSCLC = system: HOP-62 NSCLC
HOP-92 NSCLC = system: HOP-92 NSCLC
HS 578T breast = system: HS 578T breast
HT29 colon = system: HT29 colon
IGROV1 ovarian = system: IGROV1 ovarian
K-562 leukemia = system: K-562 leukemia
KM12 colon = system: KM12 colon
LOX IMVI melanoma = system: LOX IMVI melanoma
M14 melanoma = system: M14 melanoma
MALME-3M melanoma = system: MALME-3M melanoma
MCF7 breast = system: MCF7 breast
MDA-MB-231 breast = system: MDA-MB-231 breast
MDA-MB-435 = system: MDA-MB-435
MDA-N = system: MDA-N
MOLT-4 leukemia = system: MOLT-4 leukemia
NCI-H226 lung = system: NCI-H226 lung
NCI-H23 lung = system: NCI-H23 lung
NCI-H460 lung = system: NCI-H460 lung
NCI-H522 lung = system: NCI-H522 lung
NCI/ADR-RES ovarian = system: NCI/ADR-RES ovarian
OVCAR-3 ovarian = system: OVCAR-3 ovarian
OVCAR-4 ovarian = system: OVCAR-4 ovarian
OVCAR-5 ovarian = system: OVCAR-5 ovarian
OVCAR-8 ovarian = system: OVCAR-8 ovarian
PC-3 prostate = system: PC-3 prostate
RPMI-8226 leukemia = system: RPMI-8226 leukemia
RXF 393 renal = system: RXF 393 renal
SF-268 CNS = system: SF-268 CNS
SF-295 CNS = system: SF-295 CNS
SF-539 CNS = system: SF-539 CNS
SK-MEL-2 melanoma = system: SK-MEL-2 melanoma
SK-MEL-28 melanoma = system: SK-MEL-28 melanoma
SK-MEL-5 melanoma = system: SK-MEL-5 melanoma
SK-OV-3 ovarian = system: SK-OV-3 ovarian
SN12C renal = system: SN12C renal
SNB-19 CNS = system: SNB-19 CNS
SNB-75 CNS = system: SNB-75 CNS
SR leukemia = system: SR leukemia
SW-620 colon = system: SW-620 colon
T-47D breast = system: T-47D breast
TK-10 renal = system: TK-10 renal
U251 CNS = system: U251 CNS
UACC-257 melanoma = system: UACC-257 melanoma
UACC-62 melanoma = system: UACC-62 melanoma
UO-31 renal = system: UO-31 renal
A498 renal = system: A498 renal

Compound `COC(=O)C(NC(=O)C(CC(=O)OCc1ccccc1)NC(=O)OCc1ccccc1)C1CCCCC1` (configuration not stated) (Cbz-Asp(OBn)-[Chg]-OMe; configuration not given here) has a TGI (786-0 renal) greater than 100 µM, a TGI (A549 NSCLC) greater than 100 µM and a TGI (ACHN renal) greater than 100 µM. For the same compound, the TGI (CAKI-1 renal) was greater than 100 µM, the TGI (CCRF-CEM leukemia) was greater than 100 µM and the TGI (COLO 205 colon) was greater than 100 µM. The TGI (DU-145 prostate) was greater than 100 µM, the TGI (EKVX NSCLC) was greater than 100 µM and the TGI (HCC-2998 colon) was greater than 100 µM. It also gave a TGI (HCT-116 colon) greater than 100 µM, a TGI (HCT-15 colon) greater than 100 µM and a TGI (HL-60(TB) leukemia) greater than 100 µM. It also gave a TGI (HOP-62 NSCLC) greater than 100 µM, a TGI (HOP-92 NSCLC) greater than 100 µM and a TGI (HS 578T breast) of 81.3 µM. For the same compound, the TGI (HT29 colon) was greater than 100 µM, the TGI (IGROV1 ovarian) was greater than 100 µM and the TGI (K-562 leukemia) was greater than 100 µM. For the same compound, the TGI (KM12 colon) was greater than 100 µM, the TGI (LOX IMVI melanoma) was greater than 100 µM and the TGI (M14 melanoma) was greater than 100 µM. For the same compound, the TGI (MALME-3M melanoma) was greater than 100 µM, the TGI (MCF7 breast) was greater than 100 µM and the TGI (MDA-MB-231 breast) was greater than 100 µM. For the same compound, the TGI (MDA-MB-435) was greater than 100 µM, the TGI (MDA-N) was greater than 100 µM and the TGI (MOLT-4 leukemia) was greater than 100 µM. For the same compound, the TGI (NCI-H226 lung) was greater than 100 µM, the TGI (NCI-H23 lung) was greater than 100 µM and the TGI (NCI-H460 lung) was greater than 100 µM. The TGI (NCI-H522 lung) was greater than 100 µM, the TGI (NCI/ADR-RES ovarian) was greater than 100 µM and the TGI (OVCAR-3 ovarian) was greater than 100 µM. For the same compound, the TGI (OVCAR-4 ovarian) was greater than 100 µM, the TGI (OVCAR-5 ovarian) was greater than 100 µM and the TGI (OVCAR-8 ovarian) was greater than 100 µM. It also gave a TGI (PC-3 prostate) greater than 100 µM, a TGI (RPMI-8226 leukemia) greater than 100 µM and a TGI (RXF 393 renal) greater than 100 µM. The TGI (SF-268 CNS) was greater than 100 µM, the TGI (SF-295 CNS) was greater than 100 µM and the TGI (SF-539 CNS) was greater than 100 µM. It also gave a TGI (SK-MEL-2 melanoma) greater than 100 µM, a TGI (SK-MEL-28 melanoma) greater than 100 µM and a TGI (SK-MEL-5 melanoma) greater than 100 µM. The TGI (SK-OV-3 ovarian) was greater than 100 µM, the TGI (SN12C renal) was greater than 100 µM and the TGI (SNB-19 CNS) was greater than 100 µM. For the same compound, the TGI (SNB-75 CNS) was greater than 100 µM, the TGI (SR leukemia) was greater than 100 µM and the TGI (SW-620 colon) was greater than 100 µM. It also gave a TGI (T-47D breast) greater than 100 µM, a TGI (TK-10 renal) greater than 100 µM and a TGI (U251 CNS) greater than 100 µM. The TGI (UACC-257 melanoma) was greater than 100 µM, the TGI (UACC-62 melanoma) was greater than 100 µM and the TGI (UO-31 renal) was greater than 100 µM.
Work on `COP(=O)(OC)/C(=C\C1=CN(C(c2ccccc2)(c2ccccc2)c2ccccc2)CN1)NC=O` yielded a TGI (A498 renal) of 32.2 µM, a TGI (A549 NSCLC) of 30.5 µM and a TGI (ACHN renal) of 28.9 µM. It also gave a TGI (CAKI-1 renal) of 39.5 µM, a TGI (COLO 205 colon) of 40.5 µM and a TGI (DU-145 prostate) of 35.2 µM. For the same compound, the TGI (HCC-2998 colon) was 38.4 µM, the TGI (HCT-116 colon) was 29.6 µM and the TGI (HCT-15 colon) was 33.1 µM. For the same compound, the TGI (HL-60(TB) leukemia) was 50.9 µM, the TGI (HOP-62 NSCLC) was 31.3 µM and the TGI (HOP-92 NSCLC) was 23 µM. It also gave a TGI (HS 578T breast) of 51.2 µM, a TGI (HT29 colon) of 28.2 µM and a TGI (IGROV1 ovarian) of 49.2 µM. It also gave a TGI (K-562 leukemia) greater than 100 µM, a TGI (LOX IMVI melanoma) of 26.3 µM and a TGI (M14 melanoma) of 43.9 µM. For the same compound, the TGI (MDA-MB-231 breast) was 33.9 µM, the TGI (MDA-MB-435) was 23.1 µM and the TGI (MDA-N) was 28.4 µM. The TGI (MOLT-4 leukemia) was 30.6 µM, the TGI (NCI-H226 lung) was 39.5 µM and the TGI (NCI-H23 lung) was 36.3 µM. It also gave a TGI (NCI-H460 lung) of 27 µM, a TGI (NCI-H522 lung) of 33.5 µM and a TGI (NCI/ADR-RES ovarian) of 29.9 µM. For the same compound, the TGI (OVCAR-3 ovarian) was 29.8 µM, the TGI (OVCAR-4 ovarian) was 39.6 µM and the TGI (OVCAR-5 ovarian) was 31.8 µM. For the same compound, the TGI (OVCAR-8 ovarian) was 54.8 µM, the TGI (PC-3 prostate) was 19.7 µM and the TGI (RPMI-8226 leukemia) was 39.9 µM. It also gave a TGI (SF-295 CNS) of 30.2 µM, a TGI (SK-MEL-2 melanoma) of 30.4 µM and a TGI (SK-MEL-28 melanoma) of 32.5 µM. It also gave a TGI (SK-MEL-5 melanoma) of 29.6 µM, a TGI (SK-OV-3 ovarian) of 33.1 µM and a TGI (SN12C renal) of 36.3 µM. It also gave a TGI (SNB-19 CNS) of 43.4 µM, a TGI (SNB-75 CNS) of 39.8 µM and a TGI (SR leukemia) of 33.7 µM. The TGI (SW-620 colon) was 42.4 µM, the TGI (T-47D breast) was 49.2 µM and the TGI (TK-10 renal) was 49.7 µM. The TGI (U251 CNS) was 29.8 µM, the TGI (UACC-257 melanoma) was 34.1 µM and the TGI (UO-31 renal) was 29.1 µM.
`Cc1[nH]n(-c2ncc(C#N)c(=O)[nH]2)c(=O)c1CCO` showed a TGI (786-0 renal) greater than 100 µM, a TGI (A498 renal) greater than 100 µM and a TGI (A549 NSCLC) greater than 100 µM. For the same compound, the TGI (ACHN renal) was greater than 100 µM, the TGI (CAKI-1 renal) was greater than 100 µM and the TGI (CCRF-CEM leukemia) was greater than 100 µM. For the same compound, the TGI (COLO 205 colon) was greater than 100 µM, the TGI (DU-145 prostate) was greater than 100 µM and the TGI (EKVX NSCLC) was greater than 100 µM. It also gave a TGI (HCC-2998 colon) greater than 100 µM, a TGI (HCT-116 colon) greater than 100 µM and a TGI (HCT-15 colon) greater than 100 µM. The TGI (HOP-62 NSCLC) was greater than 100 µM, the TGI (HOP-92 NSCLC) was greater than 100 µM and the TGI (HS 578T breast) was greater than 100 µM. It also gave a TGI (HT29 colon) greater than 100 µM, a TGI (IGROV1 ovarian) greater than 100 µM and a TGI (K-562 leukemia) greater than 100 µM. For the same compound, the TGI (KM12 colon) was greater than 100 µM, the TGI (LOX IMVI melanoma) was greater than 100 µM and the TGI (M14 melanoma) was greater than 100 µM. The TGI (MALME-3M melanoma) was greater than 100 µM, the TGI (MCF7 breast) was greater than 100 µM and the TGI (MDA-MB-231 breast) was greater than 100 µM. It also gave a TGI (MDA-MB-435) greater than 100 µM, a TGI (MDA-N) greater than 100 µM and a TGI (MOLT-4 leukemia) greater than 100 µM. It also gave a TGI (NCI-H226 lung) greater than 100 µM, a TGI (NCI-H23 lung) greater than 100 µM and a TGI (NCI-H460 lung) greater than 100 µM. It also gave a TGI (NCI-H522 lung) greater than 100 µM, a TGI (NCI/ADR-RES ovarian) greater than 100 µM and a TGI (OVCAR-3 ovarian) greater than 100 µM. For the same compound, the TGI (OVCAR-4 ovarian) was greater than 100 µM, the TGI (OVCAR-5 ovarian) was greater than 100 µM and the TGI (OVCAR-8 ovarian) was greater than 100 µM. It also gave a TGI (PC-3 prostate) greater than 100 µM, a TGI (RPMI-8226 leukemia) greater than 100 µM and a TGI (RXF 393 renal) greater than 100 µM. It also gave a TGI (SF-268 CNS) greater than 100 µM, a TGI (SF-295 CNS) greater than 100 µM and a TGI (SF-539 CNS) greater than 100 µM. The TGI (SK-MEL-2 melanoma) was greater than 100 µM, the TGI (SK-MEL-28 melanoma) was greater than 100 µM and the TGI (SK-MEL-5 melanoma) was greater than 100 µM. The TGI (SK-OV-3 ovarian) was greater than 100 µM, the TGI (SN12C renal) was greater than 100 µM and the TGI (SNB-19 CNS) was greater than 100 µM. For the same compound, the TGI (SNB-75 CNS) was 99 µM, the TGI (SR leukemia) was greater than 100 µM and the TGI (SW-620 colon) was greater than 100 µM. It also gave a TGI (T-47D breast) greater than 100 µM, a TGI (TK-10 renal) greater than 100 µM and a TGI (U251 CNS) greater than 100 µM. It also gave a TGI (UACC-257 melanoma) greater than 100 µM, a TGI (UACC-62 melanoma) greater than 100 µM and a TGI (UO-31 renal) greater than 100 µM.
